The pKd is −log10 of the Kd, conventionally taken in molar units. A lower pKd goes with a large Kd. One may read the pIC50 as −log10 of the IC50, conventionally taken in molar units.

These results are taken from ChEMBL document CHEMBL4118086, “Potential of PI3Kβ Inhibitors in the Treatment of Cancer and Other Diseases” (ACS Med Chem Lett, 2017).

The target of assay [1] is Phosphatidylinositol 4,5-bisphosphate 3-kinase catalytic subunit gamma isoform (Homo sapiens, UniProt P48736). The experiment in a line: Binding affinity to wild-type human PIK3Cgamma (S144 to A1102 residues) expressed in mammalian expression system by KINOMEScan assay.
Sequence of Phosphatidylinositol 4,5-bisphosphate 3-kinase catalytic subunit gamma isoform (P48736 whole entry, the tested form may be a part, canonical isoform): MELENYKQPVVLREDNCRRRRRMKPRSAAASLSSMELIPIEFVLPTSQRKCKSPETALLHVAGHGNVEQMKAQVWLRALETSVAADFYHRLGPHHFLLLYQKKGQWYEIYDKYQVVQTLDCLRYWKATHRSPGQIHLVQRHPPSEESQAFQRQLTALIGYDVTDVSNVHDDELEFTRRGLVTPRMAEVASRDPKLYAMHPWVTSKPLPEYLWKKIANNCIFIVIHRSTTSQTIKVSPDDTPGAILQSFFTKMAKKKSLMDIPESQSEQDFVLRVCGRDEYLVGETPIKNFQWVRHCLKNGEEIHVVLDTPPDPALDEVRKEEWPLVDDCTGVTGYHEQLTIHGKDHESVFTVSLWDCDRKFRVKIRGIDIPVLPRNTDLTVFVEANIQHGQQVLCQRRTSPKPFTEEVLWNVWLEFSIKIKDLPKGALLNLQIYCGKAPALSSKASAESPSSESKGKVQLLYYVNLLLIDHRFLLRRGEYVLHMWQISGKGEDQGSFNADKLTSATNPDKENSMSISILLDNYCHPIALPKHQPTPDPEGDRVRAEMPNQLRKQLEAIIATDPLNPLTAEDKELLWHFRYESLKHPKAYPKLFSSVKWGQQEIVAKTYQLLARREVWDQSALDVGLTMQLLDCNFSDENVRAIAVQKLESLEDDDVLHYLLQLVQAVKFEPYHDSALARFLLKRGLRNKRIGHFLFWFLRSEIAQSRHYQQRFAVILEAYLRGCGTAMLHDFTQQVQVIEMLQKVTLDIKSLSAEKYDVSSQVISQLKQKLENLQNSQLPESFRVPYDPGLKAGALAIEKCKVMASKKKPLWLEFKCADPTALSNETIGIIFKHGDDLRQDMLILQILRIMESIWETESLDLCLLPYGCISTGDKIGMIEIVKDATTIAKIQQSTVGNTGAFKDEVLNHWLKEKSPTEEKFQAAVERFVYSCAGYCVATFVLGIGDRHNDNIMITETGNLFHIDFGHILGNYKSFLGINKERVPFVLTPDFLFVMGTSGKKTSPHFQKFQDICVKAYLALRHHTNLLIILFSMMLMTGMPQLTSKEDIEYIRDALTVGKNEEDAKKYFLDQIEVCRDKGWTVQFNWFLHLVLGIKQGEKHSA
For assay [2], the target named is Serine/threonine-protein kinase mTOR (Homo sapiens, UniProt P42345). Description: Binding affinity to wild-type human MTOR (L1382 to W2549 residues) expressed in mammalian expression system by KINOMEScan assay.
Assay [3] deals with T1, Phosphatidylinositol 4,5-bisphosphate 3-kinase catalytic subunit beta isoform (Homo sapiens, UniProt P42338). The experiment in a line: Inhibition of PI3Kbeta in human PC3 cells assessed as reduction in AKT phosphorylation at S473 residue measured after 60 mins by ELISA. Format: cell-based.
T1 sequence (P42338 whole entry, canonical isoform): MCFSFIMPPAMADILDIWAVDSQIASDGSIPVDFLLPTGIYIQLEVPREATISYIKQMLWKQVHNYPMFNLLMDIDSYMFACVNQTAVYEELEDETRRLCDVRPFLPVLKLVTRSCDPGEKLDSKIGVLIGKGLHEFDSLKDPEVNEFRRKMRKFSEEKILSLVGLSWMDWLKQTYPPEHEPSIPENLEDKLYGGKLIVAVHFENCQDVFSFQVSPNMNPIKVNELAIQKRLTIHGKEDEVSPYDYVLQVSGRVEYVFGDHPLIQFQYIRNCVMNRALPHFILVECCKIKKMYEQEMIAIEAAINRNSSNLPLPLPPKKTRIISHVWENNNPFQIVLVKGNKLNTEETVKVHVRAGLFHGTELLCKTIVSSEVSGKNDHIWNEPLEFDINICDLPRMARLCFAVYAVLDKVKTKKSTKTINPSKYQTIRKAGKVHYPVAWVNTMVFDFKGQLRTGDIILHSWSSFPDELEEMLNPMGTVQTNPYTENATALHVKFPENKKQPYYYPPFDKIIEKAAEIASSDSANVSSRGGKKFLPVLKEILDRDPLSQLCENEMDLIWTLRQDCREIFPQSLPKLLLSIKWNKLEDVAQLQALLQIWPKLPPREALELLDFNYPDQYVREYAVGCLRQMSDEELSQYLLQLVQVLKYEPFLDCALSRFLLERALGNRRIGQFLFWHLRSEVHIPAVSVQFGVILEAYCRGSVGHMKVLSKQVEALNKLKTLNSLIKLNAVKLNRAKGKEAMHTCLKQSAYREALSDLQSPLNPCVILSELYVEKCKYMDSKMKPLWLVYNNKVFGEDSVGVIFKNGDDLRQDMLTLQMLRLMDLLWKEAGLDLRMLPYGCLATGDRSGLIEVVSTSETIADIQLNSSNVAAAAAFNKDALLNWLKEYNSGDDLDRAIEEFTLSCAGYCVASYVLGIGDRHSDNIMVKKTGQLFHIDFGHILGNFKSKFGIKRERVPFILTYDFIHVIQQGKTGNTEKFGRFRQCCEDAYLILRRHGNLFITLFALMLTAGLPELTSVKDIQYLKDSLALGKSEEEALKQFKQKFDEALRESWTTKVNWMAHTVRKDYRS
Assay [4] has as its target T1, Phosphatidylinositol 4,5-bisphosphate 3-kinase catalytic subunit beta isoform. Description: Inhibition of PI3Kbeta in human PC3 cells assessed as reduction in AKT phosphorylation at Thr308 residue measured after 60 mins by ELISA. Format: cell-based. (In general: In an ELISA, binding on a coated surface is turned into a signal by an enzyme label.)
Assay [5] addresses Phosphatidylinositol 4,5-bisphosphate 3-kinase catalytic subunit alpha isoform (Homo sapiens, UniProt P42336). The experiment in a line: Binding affinity to wild-type human PIK3Calpha (R108 to N1068 residues) expressed in mammalian expression system by KINOMEScan assay.
Assay [6] has as its target T1, Phosphatidylinositol 4,5-bisphosphate 3-kinase catalytic subunit beta isoform. The experiment in a line: Binding affinity to wild-type human PIK3Cbeta (P118 to S1070 residues) expressed in mammalian expression system by KINOMEScan assay.
Assay [7] deals with T2, Phosphatidylinositol 4,5-bisphosphate 3-kinase catalytic subunit delta isoform (Homo sapiens, UniProt O00329).
T2 sequence (O00329 whole entry): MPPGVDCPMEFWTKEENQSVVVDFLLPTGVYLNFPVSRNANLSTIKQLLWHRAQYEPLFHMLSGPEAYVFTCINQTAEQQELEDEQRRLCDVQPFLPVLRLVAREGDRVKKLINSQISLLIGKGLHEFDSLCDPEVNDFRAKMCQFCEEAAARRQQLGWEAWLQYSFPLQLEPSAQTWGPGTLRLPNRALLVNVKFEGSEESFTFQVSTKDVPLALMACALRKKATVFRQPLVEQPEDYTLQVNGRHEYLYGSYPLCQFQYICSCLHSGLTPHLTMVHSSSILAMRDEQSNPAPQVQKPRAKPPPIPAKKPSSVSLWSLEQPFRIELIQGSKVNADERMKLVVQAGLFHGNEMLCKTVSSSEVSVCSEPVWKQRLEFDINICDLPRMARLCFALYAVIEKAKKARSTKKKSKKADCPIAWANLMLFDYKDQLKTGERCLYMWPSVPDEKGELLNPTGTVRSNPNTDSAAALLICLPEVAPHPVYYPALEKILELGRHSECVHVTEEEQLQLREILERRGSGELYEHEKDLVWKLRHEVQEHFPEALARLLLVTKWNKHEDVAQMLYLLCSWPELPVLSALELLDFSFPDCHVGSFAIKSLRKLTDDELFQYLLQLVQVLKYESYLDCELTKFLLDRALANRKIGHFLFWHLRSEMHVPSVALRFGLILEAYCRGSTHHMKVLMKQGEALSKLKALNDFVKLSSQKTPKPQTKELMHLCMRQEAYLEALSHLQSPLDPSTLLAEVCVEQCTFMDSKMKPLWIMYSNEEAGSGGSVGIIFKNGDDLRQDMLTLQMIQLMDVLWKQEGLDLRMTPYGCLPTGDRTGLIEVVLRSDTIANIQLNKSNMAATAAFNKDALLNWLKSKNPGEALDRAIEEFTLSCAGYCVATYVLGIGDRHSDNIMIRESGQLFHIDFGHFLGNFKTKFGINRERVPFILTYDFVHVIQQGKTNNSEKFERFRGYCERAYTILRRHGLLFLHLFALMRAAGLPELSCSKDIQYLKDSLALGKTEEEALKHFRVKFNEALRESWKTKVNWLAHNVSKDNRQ
The experiment in a line: Binding affinity to wild-type human PIK3Cdelta (R108 to Q1044 residues) expressed in mammalian expression system by KINOMEScan assay.

Each structure is given as a SMILES string. pIC50, pKd: −log10 of the molar value.

Sequence of Phosphatidylinositol 4,5-bisphosphate 3-kinase catalytic subunit alpha isoform (P42336 whole entry, the tested form may be a part, canonical isoform): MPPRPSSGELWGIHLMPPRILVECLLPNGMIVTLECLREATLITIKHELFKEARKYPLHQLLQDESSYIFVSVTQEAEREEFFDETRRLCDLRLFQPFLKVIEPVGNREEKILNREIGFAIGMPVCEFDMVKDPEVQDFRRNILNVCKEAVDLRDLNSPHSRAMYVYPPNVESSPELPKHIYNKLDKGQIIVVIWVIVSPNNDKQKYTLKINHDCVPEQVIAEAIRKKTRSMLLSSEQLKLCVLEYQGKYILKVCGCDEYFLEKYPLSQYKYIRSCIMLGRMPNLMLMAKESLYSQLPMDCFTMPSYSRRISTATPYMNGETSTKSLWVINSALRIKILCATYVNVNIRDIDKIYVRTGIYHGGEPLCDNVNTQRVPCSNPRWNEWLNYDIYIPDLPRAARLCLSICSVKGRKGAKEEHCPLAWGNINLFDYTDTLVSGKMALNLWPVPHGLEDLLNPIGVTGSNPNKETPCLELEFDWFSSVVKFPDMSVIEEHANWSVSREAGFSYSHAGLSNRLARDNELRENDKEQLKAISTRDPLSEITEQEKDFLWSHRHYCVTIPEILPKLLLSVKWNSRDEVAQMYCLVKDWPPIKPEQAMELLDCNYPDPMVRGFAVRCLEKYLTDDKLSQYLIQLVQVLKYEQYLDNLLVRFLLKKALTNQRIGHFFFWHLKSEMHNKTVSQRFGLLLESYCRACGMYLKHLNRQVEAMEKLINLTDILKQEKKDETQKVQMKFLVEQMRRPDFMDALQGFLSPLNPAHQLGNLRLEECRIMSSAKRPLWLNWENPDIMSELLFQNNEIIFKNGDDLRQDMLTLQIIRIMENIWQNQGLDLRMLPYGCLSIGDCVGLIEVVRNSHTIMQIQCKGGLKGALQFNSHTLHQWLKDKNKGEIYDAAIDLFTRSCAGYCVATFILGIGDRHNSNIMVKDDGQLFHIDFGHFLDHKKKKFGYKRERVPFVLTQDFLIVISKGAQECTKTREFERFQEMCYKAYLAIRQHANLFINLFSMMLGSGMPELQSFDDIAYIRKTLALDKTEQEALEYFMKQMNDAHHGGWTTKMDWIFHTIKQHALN

On to `CN(C)C(=O)c1cc([C@@H]2CCCN2c2cc(F)cc(F)c2)c2nc(N3CCOCC3)cnc2c1`, for which the negative-log Kd (pKd) in assay [1] and in assay [2] was under 4.52 in each case. The negative logarithm of the IC50 (pIC50) in assay [3] and in assay [4] was under 6.29 in each case.

Molecule `CN(C)C(=O)c1cc(C2CCCN2c2cc(F)cc(F)c2)c2nc(N3CCOCC3)cnc2c1` (racemic) showed a pKd in assay [2] of under 4.52. The pIC50 in assay [3] is 8.40; in assay [4], 8.87.

In the case of `C[C@H](Nc1cccc(F)c1)c1cc(C(=O)NCCO)cc2ncc(N3CCOCC3)nc12`, in assay [2], the negative-log Kd (pKd) was under 4.52. Also, the pIC50 in assay [3] and in assay [4] was under 6.29 throughout.

As to `C[C@@H](Nc1cc(F)cc(F)c1)c1cc(C(=O)NCCN(C)C)cc2ncc(N3CCOCC3)nc12`, the pIC50 in assay [3] and in assay [4] was 8.70 each time.

`C[C@@H]1CN(C(=O)c2cc(C3CCCN3c3cc(F)cc(F)c3)c3nc(N4CCOCC4)cnc3c2)C[C@H](C)N1` (mixture of isomers): the pKd is 7.85 in assay [5]; 9.70 in assay [6]; 8.15 in assay [7]; 6.67 in assay [1]; under 4.52 in assay [2]. The negative logarithm of the IC50 (pIC50) in assay [3] was 8.15; in assay [4] it was 8.30.

`C[C@H](Nc1cc(F)cc(F)c1)c1cc(C(=O)NCCN(C)C)cc2ncc(N3CCOCC3)nc12` had a pKd in assay [2] of under 4.52. The values for the pIC50 in assay [3] and in assay [4] were 6.48 and 6.83, respectively.

For `CNCCNC(=O)c1cc(C(C)Nc2cccc(F)c2)c2nc(N3CCOCC3)cnc2c1` (racemic), the pIC50 was 8.15 in assay [3] and 8.22 in assay [4].

For `CC(Nc1cc(F)cc(F)c1)c1cc(C(=O)NCCN(C)C)cc2ncc(N3CCOCC3)nc12` (racemic), the pKd in assay [2] is under 4.52. Further, the negative logarithm of the IC50 (pIC50) is 8.22 in assay [3] and 8.52 in assay [4].

For the molecule `Cc1c(F)cccc1NCc1cc(C(=O)NCCN(C)C)cc2ncc(N3CCOCC3)nc12`, the pKd was 5.72 in assay [5]; 9.70 in assay [6]; 6.49 in assay [7]; 5.18 in assay [1]; 4.75 in assay [2]. The pIC50 in assay [3] and in assay [4] was 8.05 each time.

`C[C@@H](Nc1cccc(F)c1)c1cc(C(=O)NCCO)cc2ncc(N3CCOCC3)nc12`: the pKd in assay [5] is 5.96; in assay [6] it was 8.52; in assay [7], 6.49; in assay [1], 5.47; in assay [2], 4.77. Also, the values for the negative logarithm of the IC50 (pIC50) in assay [3] and in assay [4] were 7.31 and 7.36, respectively.

Turning to `CN(C)C(=O)c1cc([C@H]2CCCN2c2cc(F)cc(F)c2)c2nc(N3CCOCC3)cnc2c1`, the negative-log Kd (pKd) in assay [5] was 7.47; in assay [6], 9.52; in assay [7], 7.82; in assay [1], 6.50; in assay [2] it was 4.55. The figures for the pIC50 in assay [3] and in assay [4] were 8.70 and 8.52, respectively.
